We go through 27 compounds from paper PMC3773436 (Evidence-based Complementary and Alternative Medicine : eCAM, 2013).

In test [1] the target is T1, Porcine kidney DPP-IV (Sus scrofa, UniProt P22411).
T1 construct: purchased Sigma-Aldrich; host or cells: porcine kidney (tissue-derived, as named)
Nature of the test: DPP-IV Glo Protease Assay (luminescence), DPP-IV inhibition. The format is biochemical. The note with it: for DPP-IV inhibitory activity (in words): tested at 0.5, 5, 20 and 40 μg/mL, data not shown. The text has this: All solvents used for phenolic extraction were HPLC-grade and were purchased from Fisher Scientific (Pittsburg, PA). Amberlite XAD-7 was purchased from Sigma-Aldrich (St. Louis, MO). Sephadex LH-20 was purchased from GE Life Sciences (Buckinghamshire, UK). […] DPP-IV Glo^TM Protease Assay kits were purchased from Promega (Madison, WI). […] All other reagents were of analytical grade.
Measurement of the activity and potential inhibition of DPP-IV, a type II membrane glycoprotein, was done using the DPP-IV Glo^TM Protease Assay following the manufacture's protocol (Promega, Madison, WI). Briefly, 50 μL of DPP-IV Glo^TM reagent was added to a white-walled 96-well plate containing 50 μL of blank, positive control, or treatment. The blank contained the vehicle only while positive control contained the vehicle and purified DPP-IV enzyme (at a final concentration of 1 ng/mL). […] The content of the wells was gently mixed using an Ultra Microplate Reader (Biotek Instruments, Winooski, VT) at medium intensity for 4 s. DPP-IV cleavage of the provided Gly-Pro-amino methyl coumarin (AMC) substrate generated a luminescent signal by luciferase reaction, with the amount of DPP-IV enzyme available to bind Gly-Pro-AMC proportional to relative light units (RLU) produced. This signal in RLU was measured after 30 min in the Ultra Microplate Reader and then compared to the blank. […] IC50 values were calculated based on the molecular mass of each compound or C3G as the equivalent for ANC-enriched fractions.
Data were expressed as means of independent duplicates with at least three replicates. […] Statistical analysis was conducted using the proc GLM procedures of SAS version 9.3 (SAS Inst. Inc., Cary, NC, 2009). Group mean comparisons were conducted using Duncan means and were considered to be significant at P < 0.05 based on the least significant differences (LSD) from one-way analysis of variance (ANOVA) with alpha = 0.05. Correlations were made using Pearson's correlation values with P < 0.05.

The target in test [2] is T1, Porcine kidney DPP-IV. Nature of the test: Inhibitory kinetics study, Lineweaver-Burk plot, Gly-Pro-AMC substrate. The class given is biochemical. The conditions noted are these: for Ki: Gly-Pro-AMC 0–60 μM, read-out: K i (enzyme-inhibition constant, experimental). The protocol:
Each concentration was evaluated in the presence of various concentrations of Gly-Pro-AMC (0–60 μM). DPP-IV activity was measured using the DPP-IV Glo Protease Assay as mentioned above. The inhibition pattern was evaluated utilizing the Lineweaver-Burk plot. Enzyme-inhibition constant K i was determined by plotting the reciprocal of the initial luminescence versus the reciprocal of the initial substrate concentration.
Initial rates of the reaction were measured, and the results are expressed as a Lineweaver-Burk plot. Data are expressed as the mean of four independent experiments.

Setting [3] is: pure compounds, concentration based on molecular mass, means ± SEM, read-out: IC50, DPP-IV inhibition.

“Also recorded” adds a separate entry of the source. Like-named read-outs stand apart in the source and are kept apart here.

T1 sequence (P22411 whole entry): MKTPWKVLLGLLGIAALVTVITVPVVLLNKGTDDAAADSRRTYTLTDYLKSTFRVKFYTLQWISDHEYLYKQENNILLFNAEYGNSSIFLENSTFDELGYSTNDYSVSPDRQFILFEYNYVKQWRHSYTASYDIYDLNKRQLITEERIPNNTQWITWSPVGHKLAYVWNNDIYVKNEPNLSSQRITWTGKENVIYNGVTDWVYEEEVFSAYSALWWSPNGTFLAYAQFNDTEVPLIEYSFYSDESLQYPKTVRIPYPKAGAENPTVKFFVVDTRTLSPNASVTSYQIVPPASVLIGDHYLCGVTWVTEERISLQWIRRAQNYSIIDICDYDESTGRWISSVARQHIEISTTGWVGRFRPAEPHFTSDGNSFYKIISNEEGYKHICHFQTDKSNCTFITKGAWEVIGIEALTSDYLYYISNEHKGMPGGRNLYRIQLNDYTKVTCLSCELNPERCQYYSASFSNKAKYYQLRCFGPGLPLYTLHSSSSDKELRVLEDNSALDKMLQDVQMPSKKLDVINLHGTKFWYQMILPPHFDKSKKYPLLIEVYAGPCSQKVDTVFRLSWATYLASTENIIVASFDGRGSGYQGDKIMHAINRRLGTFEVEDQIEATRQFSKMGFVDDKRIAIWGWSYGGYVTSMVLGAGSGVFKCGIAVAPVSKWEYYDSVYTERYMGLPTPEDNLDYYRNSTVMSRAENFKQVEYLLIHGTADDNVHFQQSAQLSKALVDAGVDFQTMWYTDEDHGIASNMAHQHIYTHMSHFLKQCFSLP

As to `O=c1cc(-c2ccc(O)cc2)oc2cc(O)cc(O)c12` [Apigenin, apigenin], in test [1] (setting [3]), the half-inhibitory concentration (IC50) (as a rule, the point on the concentration scale where inhibition reaches its midpoint) turned out to be 140 ± 20 nM. In test [2], the Inhibition manner entry was “noncompetitively; also recorded: noncompetitive” and the Ki is 7900 ± 1400 nM.

With `O=C(O)/C=C/c1ccc(O)c(O)c1` [Caffeic acid, caffeic acid], the IC50 in test [1] (setting [3]) was determined as 3370 ± 140 nM.

In the case of `Oc1cc(O)c2cc(O)c(-c3ccc(O)c(O)c3)[o+]c2c1` [Cyanidin, cyanidin], in test [1] (setting [3]), the IC50 was found to be 1410 ± 250 nM.

As to `OC[C@H]1O[C@@H](Oc2cc3c(O)cc(O)cc3[o+]c2-c2ccc(O)c(O)c2)[C@H](O)[C@@H](O)[C@@H]1O` [Cyanidin-3-glucoside, cyanidin-3-glucoside], the IC50 in test [1] (setting [3]) amounted to 420 ± 90 nM.

With `O=C(O[C@@H]1Cc2c(O)cc(O)cc2O[C@@H]1c1cc(O)c(O)c(O)c1)c1cc(O)c(O)c(O)c1` [EGCG, epigallocatechin gallate], the IC50 in test [1] (setting [3]) came to 10200 ± 750 nM.

Consider `C[C@@H]1O[C@@H](OC[C@H]2O[C@@H](Oc3cc(O)c4c(c3)O[C@H](c3ccc(O)c(O)c3)CC4=O)[C@H](O)[C@@H](O)[C@@H]2O)[C@H](O)[C@H](O)[C@H]1O` [Eriocitrin, eriocitrin], for which the IC50 in test [1] (setting [3]) came to 10360 ± 90 nM.

For `O=c1cc(-c2ccccc2)oc2ccccc12` [Flavone, flavone], in test [1] (setting [3]), the IC50 was found to be 170 ± 10 nM. Also, in test [2], the Inhibition manner entry is “competitive” and the Ki is 18600 ± 300 nM.

On to `O=C(O)c1cc(O)c(O)c(O)c1` [Gallic acid, gallic acid], for which the IC50 in test [1] (setting [3]) was determined as 4650 ± 990 nM.

Take `O=c1c(-c2ccc(O)cc2)coc2cc(O)cc(O)c12` [Genistein, genistein]: the IC50 in test [1] (setting [3]) worked out at 480 ± 40 nM.

Turning to `COc1ccc([C@@H]2CC(=O)c3c(O)cc(O)cc3O2)cc1O` [Hesperetin, hesperetin], the half-inhibitory concentration (IC50) in test [1] (setting [3]) stood at 280 ± 70 nM.

As for `O=c1c(O)c(-c2ccc(O)cc2)oc2cc(O)cc(O)c12` [Kaempferol, kaempferol], in test [1] (setting [3]), the IC50 was determined as 490 ± 20 nM.

Regarding `O=c1cc(-c2ccc(O)c(O)c2)oc2cc(O)cc(O)c12` [Luteolin, luteolin], in test [1] (setting [3]), the 50% inhibitory concentration (IC50) is 120 ± 10 nM. Besides, in test [2], the Inhibition manner entry is “noncompetitively; also recorded: noncompetitive” and the Ki amounted to 4900 ± 200 nM.

As for `COc1cc(-c2[o+]c3cc(O)cc(O)c3cc2O)cc(OC)c1O` [Malvidin, malvidin], in test [1], the IC50 was found to be 740 ± 160 nM.

Regarding `O=C1C[C@@H](c2ccc(O)cc2)Oc2cc(O)cc(O)c21` [Naringenin, naringenin], the IC50 in test [1] (setting [3]) was 240 ± 30 nM.

In the case of `O=c1c(O)c(-c2ccc(O)c(O)c2)oc2cc(O)cc(O)c12` [Quercetin, quercetin], the IC50 in test [1] (setting [3]) turned out to be 2920 ± 680 nM.

`Oc1ccc(/C=C/c2cc(O)cc(O)c2)cc1` [Resveratrol, resveratrol]: the IC50 in test [1] (setting [3]) amounted to 0.6 ± 0.4 nM. In test [2], the Inhibition manner entry is listed as “competitive” and the Ki amounted to 200 ± 10 nM.

`O.Oc1cc(O)c2c(c1)O[C@H](c1ccc(O)c(O)c1)[C@@H](O)C2` [catechin]: the “DPP-IV inhibitory activity (in words)” value in test [1] is “did not have DPP-IV inhibitory activity”.

On to `O=C(/C=C/c1ccc(O)c(O)c1)O[C@@H]1C[C@](O)(C(=O)O)C[C@@H](O)[C@H]1O` [chlorogenic acid], for which, in test [1], the “DPP-IV inhibitory activity (in words)” value is on record as “did not have DPP-IV inhibitory activity”.

In the case of `Oc1cc(O)c2c(c1)O[C@H](c1ccc(O)c(O)c1)[C@H](O)C2` [epicatechin], the “DPP-IV inhibitory activity (in words)” value in test [1] is recorded as “did not have DPP-IV inhibitory activity”.

Turning to `O=c1c(-c2ccc(O)cc2)coc2cc(O[C@@H]3O[C@H](CO)[C@@H](O)[C@H](O)[C@H]3O)cc(O)c12` [genistin], the “DPP-IV inhibitory activity (in words)” value in test [1] is “did not have DPP-IV inhibitory activity”.

As for `COc1ccc([C@@H]2CC(=O)c3c(O)cc(O[C@@H]4O[C@H](CO[C@@H]5O[C@@H](C)[C@H](O)[C@@H](O)[C@H]5O)[C@@H](O)[C@H](O)[C@H]4O)cc3O2)cc1O` [hesperidin], in test [1], the “DPP-IV inhibitory activity (in words)” value is recorded as “did not have DPP-IV inhibitory activity; also recorded: no DPP-IV inhibitory effect”.

For the compound `CC1(C)O[C@H]2CC(=O)OC[C@]23[C@H]2CC[C@@]4(C)[C@H](c5ccoc5)OC(=O)[C@H]5O[C@]54[C@]2(C)C(=O)C[C@@H]13` [limonin], the “DPP-IV inhibitory activity (in words)” value in test [1] was “did not have DPP-IV inhibitory activity”.

For the compound `C[C@@H]1O[C@@H](O[C@H]2[C@H](Oc3cc(O)c4c(c3)O[C@H](c3ccc(O)cc3)CC4=O)O[C@H](CO)[C@@H](O)[C@@H]2O)[C@H](O)[C@H](O)[C@H]1O` [naringin], the “DPP-IV inhibitory activity (in words)” value in test [1] is reported as “did not have DPP-IV inhibitory activity; also recorded: no DPP-IV inhibitory effect”.

On to `C[C@@H]1O[C@@H](OC[C@H]2O[C@@H](Oc3cc(O)c4c(c3)O[C@H](c3ccc(O)cc3)CC4=O)[C@H](O)[C@@H](O)[C@@H]2O)[C@H](O)[C@H](O)[C@H]1O` [narirutin], for which the “DPP-IV inhibitory activity (in words)” value in test [1] is “did not have DPP-IV inhibitory activity; also recorded: no DPP-IV inhibitory effect”.

Turning to `COc1ccc([C@@H]2CC(=O)c3c(O)cc(O[C@@H]4O[C@H](CO)[C@@H](O)[C@H](O)[C@H]4O[C@@H]4O[C@@H](C)[C@H](O)[C@@H](O)[C@H]4O)cc3O2)cc1O` [neohesperidin], in test [1], the “DPP-IV inhibitory activity (in words)” value is given as “did not have DPP-IV inhibitory activity; also recorded: no DPP-IV inhibitory effect”.

For `O=C(O)c1ccc(O)c(O)c1` [protocatechuic acid], the “DPP-IV inhibitory activity (in words)” value in test [1] is reported as “did not have DPP-IV inhibitory activity”.

`C[C@@H]1O[C@@H](OC[C@H]2O[C@@H](Oc3c(-c4ccc(O)c(O)c4)oc4cc(O)cc(O)c4c3=O)[C@H](O)[C@@H](O)[C@@H]2O)[C@H](O)[C@H](O)[C@H]1O` [rutin, rutin hydrate]: the “DPP-IV inhibitory activity (in words)” value in test [1] was “did not have DPP-IV inhibitory activity; also recorded: no DPP-IV inhibitory effect”.
